Source: US9771430B2, “Method of treating a metabolic disorder induced by obesity in a subject in need thereof by administering MK2/3 inhibitors” (THE TRUSTEES OF COLUMBIA UNIVERSITY IN THE CITY OF NEW YORK, priority 2011, dated 2017)
“Also recorded” adds a separate entry of the source.

Columns and labels:
[1] = Fasting glucose in C57BL/6J mice treated with Xestospongin C; assay type: in vivo, mouse
Excerpt: FIGS. 49A-S. The role of IP3R in forskolin/glucagon-induced G6Pase/PEPCK in cultured hepatocytes and in fasting blood glucose in vivo. FIG. 49 A,B. FSK-Induced G6Pase and PEPCK is Calcium-Dependent. FIG. 49C-D. IP3R Activity is Required for Forskolin- and Glucagon-Induced G6Pase and PEPCK (FAO rat hepatocyte cell line). FIG. 49E-F. IP3R Activity is Required for Forskolin-Induced G6Pase and PEPCK (primary murine hepatocytes). FIG. 49G-H. IP3R1 Anti-Sense Oligonucleotide Suppresses Forskolin-Induced G6Pase and PEPCK (primary murine hepatocytes). FIG. 49I. Forskolin Activates IP3R Activity in FAO Hepatocytes (Inositol/ATP-Induced Calcium Release Assay). FIG. 49J. The PKA Inhibitor H89 Suppresses Forskolin-Induced IP3R Activation. FIG. 49K-L. IP3R Activity is Required for Forskolin-Induced PGC1a. FIG. 49M-N. Calcineurin Inhibitory Peptide Suppresses Forskolin-Induced G6Pase and PEPCK. FIG. 49O. IP3R Activity is Required for Forskolin-Induced Calcineurin Activation. FIG. 49P-Q. IP3R Activity is Required for Forskolin-Induced TORC2 Dephosphorylation and Nuclear Localization. FIG. 49R. TORC2 Transduction Partially Restores Forskolin-Induced G6Pase in IP3R-Inhibited Hepatocytes. FIG. 49S. Xestospongin C Treatment Reduces Fasting Glucose Levels in C57BL/6J Mice.

[2] = tested on: CaMKII; assay type: cell-based, mouse
Protocol: FIG. 1A. CaMKII enzyme activity was assayed in triplicate wells of primary mouse HCs stimulated with 100 nM glucagon (Gluc) or vehicle control (Veh) for the indicated times (*P<0.05 and **P<0.01 vs. Veh; mean±S.E.M.). FIGS. 1B-1J. Extracts of HCs or liver were probed for phospho-CaMKII, total CaMKII, and β-actin by immunoblot assay. FIG. 1B. HCs were incubated with […] glucagon for the indicated times; FIG. 1C. Glucagon was added to HCs that were pre-treated for 1 h with vehicle control (Veh) or 5 μM BAPTA-AM; FIG. 1D. Glucagon was added to HCs that were pre-treated with 0.5 μM xestospongin (XesC) or to HCs from Ip3r1fl/fl mice transduced with adeno-LacZ control or adeno-Cre (bar graph=Ip3r1 mRNA levels); FIG. 1E. Glucagon was added to HCs that were pre-treated for 1 h with vehicle control (Veh) or 10 μM H89. FIG. 1F. […] FIGS. 1G-1J. In vivo experiments. In FIG. 1G, mice were treated for 30 min with 200 μg kg−1 body weight of glucagon i.p., and in FIG. 1H, mice were pre-treated with 10 pmol g−1 xestospongin C or vehicle control i.p. 4 days prior to glucagon treatment. In FIGS. 1I-1J, mice were fed ad libitum or fasted for 12 h, or fasted for 12 h and then re-fed for 4 h.
Total RNA was extracted from hepatocytes using the RNeasy kit (Qiagen). cDNA was synthesized from 2 μg total RNA using oligo (dT) and Superscript II (Invitrogen). Real-time qPCR analysis and western blotting were performed as previously described (Timmins et al., 2009). Nuclear extraction from liver was performed using the Nuclear Extraction Kit from Panomics according to the manufacturer's instructions.
Immunoblot and RT-qPCR assays were performed as previously described (Timmins et al., 2009). Total RNA was extracted from HCs using the RNeasy kit (Qiagen). cDNA was synthesized from 2 μg total RNA using oligo (dT) and Superscript II (Invitrogen). Nuclear extraction from liver was performed using the Nuclear Extraction Kit from Panomics according to the manufacturer's instructions.

[3] = tested on: CaMKII; assay: CaMKII enzyme activity assay in primary mouse hepatocytes; assay type: cell-based; settings: HCs, 100 nM glucagon, various times
Protocol: FIGS. 1A-J. Glucagon and fasting activates hepatic CaMKII. FIG. 1A. CaMKII enzyme activity was assayed in triplicate wells of primary mouse HCs stimulated with 100 nM glucagon (Gluc) or vehicle control (Veh) for the indicated times (*P<0.05 and **P<0.01 vs. Veh; mean±S.E.M.). FIGS. 1B-1J. Extracts of HCs or liver were probed for phospho-CaMKII, total CaMKII, and β-actin by immunoblot assay. FIG. 1B. HCs were incubated with […] glucagon for the indicated times; FIG. 1C. Glucagon was added to HCs that were pre-treated for 1 h with vehicle control (Veh) or 5 μM BAPTA-AM; FIG. 1D. […]
CaMKII activity was assayed using a CaMKII assay kit from Promega according to the manufacturer's instructions. […] Next, [γ-32P]ATP and CaMKII biotinylated peptide substrate were added to the lysate and after incubation for 10 minutes at 30° C., the [32P]-phosphorylated substrate was separated from the residual [32P]ATP using SAM biotin capture membrane and quantitated using a scintillation counter.
CaMKII activity was assayed using a CaMKII assay kit from Promega according to the manufacturer's instructions. […] After incubation for 10 min at 30° C., the [^32P]-phosphorylated substrate was separated from the residual [^32P]ATP using SAM biotin-capture membrane and then quantitated using a scintillation counter. […]

## C1CCC[C@H]2CCCN3CC[C@@H](CCCCCC[C@@H]4CCCN5CC[C@@H](CC1)O[C@@H]45)O[C@@H]23 [Xestospongin C]
[1]
  Fasting Glucose Levels: Reduces
[2]; HCs pre-treated with inhibitor, then glucagon
  glucagon-induced CaMKII phosphorylation: significant decrease

## glucagon: hormone used to stimulate hepatocytes and mice
[3]
  CaMKII activity: increased steadily as a function of time; also recorded: increases as a function of time
[2]; HCs treated with agonist
  phospho-CaMKII: induced
